The text below walks through data of patent US20170202792A1, “METHOD FOR TREATING TAU-ASSOCIATED DISEASES” (NATIONAL TAIWAN NORMAL UNIVERSITY, priority 2016, published 2017).

Experiment [1] has as its system SH-SY5Y tauRD-DsRed cells. The experiment in a line: Neurite outgrowth in SH-SY5Y tauRD-DsRed cells (TUBB3 staining). Format: cell-based, human. The following applies: 10 μM, pre-treated 8 hours, doxycycline 7 days; untreated = 100%. The method, then: We used SH-SY5Y human cells expressing a DsRed-tagged proaggregation mutant (ΔK280) of the C-terminal repeat domain of tau (tauRD-Gln^244-Glu^372 of the longest tau^441 isoform). The recombinant tauRD-DsRed construct was under the control of a tetracycline-regulated, hybrid human cytomegalovirus (CMV)/TetO2 promoter that can be induced by adding doxycycline. The cell lines were grown in medium containing blasticidin (5 μg/mL) and hygromycin (100 μg/mL).
SH-SY5Y tauRD-DsRed cells were seeded in 6-well plates (1×10^5/well) in a medium containing all-trans retinoic acid (10 μM, Sigma). After 48 hours of incubation, cells were pre-treated with 10 μM Congo red and 10 μM compound (I) for 8 hours; after which, tauRD-DsRed expression was induced with 1μg/mL doxycycline for 7 days. The cells were then fixed in 4% paraformaldehyde, permeabilized with 0.1% Triton X-100, blocked in 3% BSA, and then stained with the primary antibody anti-TUBB3 (against neuronal Class III β-tubulin) (1:1000; Covance) and with a secondary anti-rabbit Alexa Fluor® 555 antibody (1:500; Molecular Probes). Nuclei were counterstained with 4′,6-diamidino-2-phenylindole (DAPI). The total outgrowth in the untreated, Congo red-treated, and compound (I)-treated cells was assessed using MetaXpress image acquisition and analysis software.

Experiment [2] relates to GRP78. In words: Western blot of GRP78 expression in tauRD-DsRed SH-SY5Y cells. It counts as cell-based, human. Particulars: untreated = 100%. The text has this: Furthermore, chaperones are molecules essential for proper protein folding which play a key role in protein-folding disorders in central nervous system. […] Moreover, the upregulation of endoplasmic reticulum chaperones such as glucose-regulated protein, 78 kDa (GRP78) is a cellular protective response against AD (Hoshino et al., 2007. Endoplasmic reticulum chaperones inhibit the production of amyloid-(3 peptides. Biochem. J. 402, 581-589). Accordingly, the GRP78 and HSPB1 expression in tauRD-DsRed SH-SYSY cells treated by Congo red and compound (I) with or without doxycycline were analyzed.
Western blotting analysis was applied for examining the expressions of HSPB1 and GRP78, the method was as follows: total proteins were extracted using RIPA buffer, which comprised 50 mM Tris-HCl, 150 mM NaCl, 1 mM EDTA, 1 mM EGTA, 0.1% SDS, 0.5% sodium deoxycholate, 1% Triton X-100, and a protease inhibitor cocktail (Calbiochem). […] Next, immunoreactive bands were detected using horseradish peroxidase-conjugated goat anti-mouse, goat anti-rabbit, or donkey anti-goat IgG antibodies (1:5000; GeneTex) and chemiluminescent substrate (Millipore).
On the technique in general: In western blotting, separated proteins are transferred to a membrane and probed.

Experiment [3] has as its system 3×Tg-AD mice. In words: Morris water maze (MWM) test. Format: in vivo, mouse. The method, then: Hyperglycemia was induced by streptozotocin (STZ) to accelerated Alzheimer's disease progression of 6-month-old male transgenic 3×Tg−AD mice. Half of the 3×Tg−AD mice (n=30) received STZ (100 mg/kg) intraperitoneal injection at days 1, 2, 8, and 9 respectively as the high blood glucose group (HBG); another half of the 3×Tg-AD mice (n=30) received sodium citrate (0.1 M) at the same time points as the normal blood glucose group (NBG). Then, HBG and NBG were divided into two groups respectively to give four groups such as NBG-compound (I), HBG-compound (I), NBG-DMSO, and HBG-DMSO with n=15 in each group; wherein 0.25 mg/kg of compound (I) (in 30 μL) were intraperitoneal injected into those mice of NBG-compound (I) and HBG-compound (I) groups daily since day 14 for 28 days, and 30 μL of DMSO solvent were intraperitoneal injected into those mice of NBG-DMSO and HBG-DMSO groups daily since day 14 for 28 days. Both mouse body weight (BW) and blood glucose (BG) were monitored every week.
Morris water maze (MWM) was conducted to evaluate the learning and memory ability of the mice at days 34-42. At first, during the 4 training days, each of the mice received four trails a day, wherein each of the mice was released into the water from a starting point that randomly varied between trials, and the time required for each of the mice to find the hidden platform to escape from the water maze (escape latency) was calculated, and the curve of 4 training days represent the learning profile of mice. 24 hours after the final training trial, the mice underwent three testing trials to determine the time required to find the hidden platform as a measure of spatial learning acquisition. The probe trials were conducted 48 hours after the end of the testing trials to evaluate the long-term spatial memory, wherein each mouse was allowed to swim freely in a pool without platform for 60 seconds, and the duration of the mouse spent in the target quadrant (where the platform was originally disposed) was measured to represent the degree of memory consolidation after learning.

Experiment [4] deals with GSK-3β. In words: Western blot of mouse hippocampal tissue, GSK-3β. Format: in vivo. Particulars: hyperglycemic 3×Tg-AD mice; 0.25 mg/kg i.p. daily. The method, then: Hyperglycemia was induced by streptozotocin (STZ) to accelerated Alzheimer's disease progression of 6-month-old male transgenic 3×Tg−AD mice. Half of the 3×Tg−AD mice (n=30) received STZ (100 mg/kg) intraperitoneal injection at days 1, 2, 8, and 9 respectively as the high blood glucose group (HBG); another half of the 3×Tg-AD mice (n=30) received sodium citrate (0.1 M) at the same time points as the normal blood glucose group (NBG). […] Both mouse body weight (BW) and blood glucose (BG) were monitored every week.
Mice were sacrificed after MWM and hippocampi were isolated for analyzing several protein expression levels by means of western blot. The protein of the hippocampi was quantified by BCA assay (Pierce), wherein 25 μg of protein was separated by SDS-PAGE and then transferred to PVDF film. Next, protein was blocked for reducing non-specific signals, and reacted with primary antibodies (GSK-3β, pS9-GSK-3β (non-activated), pT216-GSK-3β(activated), pS202Tau, pS396Tau, pT231Tau, HT7 (total Tau)), and secondary antibodies (anti-rabbit, anti-mouse IgG HRP-linked antibody; 1:10,000; Amersham Pharmacia Biotech). β-actin was used as the loading control, ECL kit was used to detect the antigen-antibody complex, and LAS-4000 (Fujifilm) was used for imaging and quantification.

With `CCCCC/C=C\C/C=C\C/C=C\C/C=C\CCCC(=O)Nc1ccc(O)cc1` [compound (I), (5Z, 8Z, 11Z,14Z)-N-(4-Hydroxyphenyl)icosa-5 ,8 , 11,14-tetraen amide], in experiment [1], the “neurite growth relative to untreated cells” value was determined as 140%. Also, the “expression of GRP78 relative to untreated cells” value in experiment [2] came to 189%. Further, in experiment [3] (0.25 mg/kg i.p. daily), the “duration in target quadrant of probe trial in MWM (long-term memory)” value was “ameliorate the long-term memory damages”. For the same compound, the “swimming velocity in MWM” value in experiment [3] (4 training days, 0.25 mg/kg i.p. daily, among 4 groups) is on record as “no difference”. Also, in experiment [3] (high blood glucose groups, 0.25 mg/kg i.p. daily vs DMSO), the “escape latency of 4 training days in MWM (learning ability)” value is “better learning ability”. Besides, the “GSK-3β inhibition in hippocampus (pT216-GSK-3β/GSK-3β, pS9-GSK-3β/GSK-3β)” value in experiment [4] is reported as “exerts inhibition for GSK-3β”.
